From patent publication US20210311050A1, “TARGETING PATHOGENIC B CELLS IN AUTOIMMUNITY” (Research Foundation for the STATE UNIVERSITY OF NEW YORK, priority 2018, published 2021)
Entries after “also recorded” stand apart in the source; their conditions may differ.

How the values were obtained:
[1] = system: CD11c^+ CD19^+ or T-bet^+ CD19^+ B cells; experiment: Depletion of T-bet+ B cells in lupus-prone SLE1.2.3 mice (flow cytometry of spleen cells); assay type: in vivo, SLE1.2.3 (B6.NZMs^Sle1/Sle2/Sle3) mice; details: nine-month old SLE mice, treated every other day for 7 days, n=6
Description: FIGS. 4A-4D. Agonist treatment eliminated T-bet+ B cells in lupus-prone SLE1.2.3 (B6.NZMs^Sle1/Sle2/Sle3) mice. (A) CD11c and CD19 flow cytometry data from vehicle treated mice. (B) CD11c and CD19 flow cytometry data from A2aR agonist (CGS21680)-treated mice. (C) T-bet and CD19 flow cytometry data from vehicle-treated mice. (D) T-bet and CD19 flow cytometry data from agonist (CGS21680)-treated mice. Nine-month old SLE mice were treated with vehicle, or CGS21680, every other day for 7 days, at which time spleen cells were analyzed by flow cytometry. CD11c^+ CD19^+ ((A) and (B)) or T-bet^+ CD19^+ ((C) and (D)) B cells were analyzed. […] The data shown are representative of an experiment where n=6.

CD11c^+ T-bet^+ B cells = experiment: Depletion of splenic CD11c+ T-bet+ B cells in E. muris-infected mice (flow cytometry); assay type: in vivo, C57BL/6 mice
[2] = system: T-bet+ Age-related B cells (ABCs); experiment: Depletion of T-bet+ Age-related B cells (ABCs) in aged mice; assay type: in vivo; details: administered at day 0, 4 and 6; sacrificed day 7; flow cytometry
Description: FIG. 8A-8C. T-bet+ Age-related B cells (ABCs) were depleted in aged mice upon CGS21680 treatment. CD11c and CD19 flow cytometry data from (A) vehicle-treated and (B) A2aR agonist-(CGS21680) treated aged mice. CGS21680 was administered at day 0, 4 and 6. Mice were sacrificed on day 7 and ABCs were identified using flow cytometry. (C) Quantification of the data in (A) and (B).

[3] = system: CD11c^+ CD19^+ B cells (also T-bet^+); experiment: Agonist treatment of E. muris-infected wild-type versus B cell-specific A2aR KO mice (flow cytometry of spleen cells); assay type: in vivo; details: 30 days post-infection, treated every other day for 7 days
Description: FIGS. 3A-3B. […] CD11c and CD19 flow cytometry data from (A) Wild type mice (B) mice that lacked A2aR only on B cells. The mice were infected with E. muris; 30 days post-infection wild-type or MB1-cre×A2aR^fl/fl (B cell-specific A2aR KO) mice were treated with CGS21680 every other day for 7 days, at which time spleen cells were analyzed by flow cytometry. CD11c^+ CD19^+ B cells (also T-bet^+) were eliminated in the wild-type mice (A), but not in the B cell-specific A2aR KO mice (B). The data shown are representative of several experiments.

[4] = system: anti-nuclear antibodies (ANAs); experiment: Anti-nuclear antibodies in lupus-prone MRL/lpr mice; assay type: in vivo; details: once weekly from 9 weeks of age, sacrificed at 15 weeks of age
Source text: FIG. 9. […] CGS21680-treated mice had much lower amounts of anti-nuclear antibodies (ANAs). ANAs are a signature of disease in lupus mice.

CD11c^+ CD19^+ B cells [5] = experiment: Depletion of T-bet+ B cells in lupus-prone MRL/lpr mice (flow cytometry of spleen cells); assay type: in vivo, MRL/lpr (MRL/MpJ-Fas^lpr/J) mice; details: 12 to 13 week old MRL/lpr mice, treated every other day for 7 days
Description: FIGS. 5A-5B. Agonist treatment eliminated T-bet^+ B cells in lupus-prone MRL/lpr (MRL/MpJ-Fas^lpr/J) mice. CD11c and CD19 flow cytometry data from (A) vehicle-treated mice and (B) A2aR agonist (CGS21680)-treated mice. 12 to 13 week old MRL/lpr mice were treated with vehicle, or CGS21680, every other day for 7 days, at which time spleen cells were analyzed by flow cytometry.

CD11c^+ CD19^+ B cells [6] = experiment: In vitro agonist treatment of T cell-depleted spleen cells from E. muris-infected mice; assay type: cell-based; details: 48 hours
Description: FIGS. 6A-6B. In vitro agonist treatment eliminated T-bet^+ B cells. CD11c and CD19 flow cytometry data using B cells isolated from (A) vehicle-treated splenocytoes and (B) A2aR agonist (CGS21680)-treated splenocytes. C57BL/6 mice were infected with E. muris; 30 days post-infection, T cell-depleted spleen cells were incubated in cell culture medium treated with vehicle, or CGS21680 (1 μM), for 48 hours. Approximately 50% of the CD11c^+ CD19^+ B cells were depleted by the agonist.
FIGS. 7A-7B. In vitro Regadenoson treatment eliminated T-bet^+ B cells. (A) vehicle treated splenocytes and (B) agonist (Regadenoson)-treated splenocytes. Mice were infected with E. muris; 44 days post-infection, T cell-depleted spleen cells were incubated in medium with or without Regadenson (10 μM), for 48 hours. Approximately 30% of the CD11c^+ CD19^+ B cells were depleted by Regadenoson in vitro.

SMILES | CD11c^+ CD19^+ or T-bet^+ CD19^+ B cells in spleen [1] | CD11c^+ T-bet^+ B cells in spleen after cessation of treatment (CD11c^+ T-bet^+ B cells; 2.5 mg/kg daily for 7 days from day 30, spleen harvested 12 days following cessation (day 48), p<0.0001 vs vehicle) | CD11c^+ T-bet^+ B cells in spleen after agonist treatment (CD11c^+ T-bet^+ B cells; E. muris infection day 0, 2.5 mg/kg daily for 7 days from day 30, spleen harvested day 37, p<0.0001 vs vehicle, 2.5 mg/kg) | T-bet+ Age-related B cells (ABCs) in aged mice [2] | CD11c^+ CD19^+ B cells (also T-bet^+) in spleen, B cell-specific A2aR KO mice ([3]; MB1-cre×A2aR^fl/fl mice) | CD11c^+ CD19^+ B cells (also T-bet^+) in spleen, wild-type mice ([3]; wild-type mice) | amounts of anti-nuclear antibodies (ANAs) [4] | CD11c^+ CD19^+ B cells in spleen (CD11c^+ CD19^+ B cells [5]) | CD11c^+ CD19^+ B cells depleted in vitro (CD11c^+ CD19^+ B cells [6]; 1 μM, 30 days post-infection) | number of Tbet^+ B cells in splenocytes (CD11c^+ T-bet^+ B cells; 2.5 mg/kg every other day for 7 days from day 30 post-infection, analysed day 37, P=0.0049 vs vehicle) | CD11c^+ CD19^+ B cells depleted in vitro (CD11c^+ CD19^+ B cells [6]; 10 μM, 44 days post-infection)
CCNC(=O)[C@H]1O[C@@H](n2cnc3c(N)nc(NCCc4ccc(CCC(=O)O)cc4)nc32)[C@H](O)[C@@H]1O [CGS21680] | largely eliminated | prolonged depletion; also recorded: Significant cell depletion | largely absent; also recorded: major reduction | depleted | did not eliminate | eliminated | much lower | Most of the CD11c^+ CD19^+ B cells were eliminated | Approximately 50% | – | –
CNC(=O)c1cnn(-c2nc(N)c3ncn([C@@H]4O[C@H](CO)[C@@H](O)[C@H]4O)c3n2)c1 [Regadenoson] | – | – | – | – | – | – | – | – | – | reduced | Approximately 30%
